Experimental data taken from ChEMBL document CHEMBL1201862, “PubChem BioAssay data set” (2004).
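The compound was tested at five concentrations on cells cultured in 96-well plates, with a 48-hour exposure period. Here, GI50 denotes the concentration required for 50% inhibition of growth.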 Calls of active or inactive are those of the source. Cut-off read from the data, not from the text of the source: active = GI50 up to about 1.1 µM and inactive = higher.

Experiments:
Test in all cases: NCI anticancer screen, dose series, 48 h
[1] = system: HOP-18
[2] = system: XF498
[3] = system: DLD-1
[4] = system: DMS-114
[5] = system: M19-MEL
[6] = system: MDA-N
[7] = system: BT-549
[8] = system: SNB-78

Compound	GI50 [6]	GI50 [7]	other results
COC(c1cccc(C(O)(C(F)(F)F)C(F)(F)F)c1)(C(F)(F)F)C(F)(F)F			GI50 [1]: 18.2 µM (inactive); GI50 [2]: 15 µM (inactive); GI50 [3]: 20.3 µM (inactive); GI50 [4]: 18.6 µM (inactive); GI50 [5]: 16.1 µM (inactive)
CC1(C)CC(=O)c2c(nc3ccc4ccccc4c3c2-c2ccc(NC(=O)CCCC(=O)Nc3ccc(-c4c5c(nc6ccc7ccccc7c46)CC(C)(C)CC5=O)cc3)cc2)C1	> 100 µM (inactive)	> 100 µM (inactive)	
N#CC(OC1OC(COC2OC(CO)C(O)C(O)C2O)C(O)C(O)C1O)c1ccccc1 (stereo not drawn)			GI50 [1]: > 225 µM (inactive); GI50 [2]: > 225 µM (inactive); GI50 [3]: > 225 µM (inactive); GI50 [8]: > 225 µM (inactive); GI50 [4]: > 225 µM (inactive); GI50 [5]: > 225 µM (inactive)
O=C(CSSCC(=O)Nc1ccc(Br)cc1)Nc1ccc(Br)cc1			GI50 [2]: 20.1 µM (inactive); GI50 [3]: 18.1 µM (inactive); GI50 [8]: 15.1 µM (inactive); GI50 [4]: 14 µM (inactive); GI50 [5]: 18.5 µM (inactive)
Cc1ccc(Nc2nc(NNC(=O)Cc3ccccc3)nc(NNC(=O)c3ccncc3)n2)cc1	> 10 µM (inactive)	> 10 µM (inactive)	
CN(C)c1ccc(/C=C/C(=O)O)cc1			GI50 [1]: > 100 µM (inactive); GI50 [2]: > 100 µM (inactive); GI50 [3]: > 100 µM (inactive); GI50 [8]: > 100 µM (inactive); GI50 [4]: > 100 µM (inactive); GI50 [5]: > 100 µM (inactive)
O=C1NC2(CCNCC2)Oc2ccccc21	> 100 µM (inactive)	> 100 µM (inactive)	
COc1ccc2nc3cccc([N+](=O)[O-])c3c(NCCO)c2c1	0.00895 µM (active)	0.00565 µM (active)	
COc1ccc(C(SCCO)(c2ccc(OC)cc2)c2ccc(OC)cc2)cc1	4.9 µM (inactive)	16.1 µM (inactive)	
COC(=O)C12CC(c3ccccc31)C1C(=O)OC(=O)C12 (stereo not drawn)			GI50 [2]: > 100 µM (inactive); GI50 [3]: > 100 µM (inactive); GI50 [8]: > 100 µM (inactive); GI50 [4]: > 100 µM (inactive); GI50 [5]: > 100 µM (inactive)
CCOC(=O)C(N=C(c1ccccc1)c1ccccc1)N(C(=O)OC(C)(C)C)C(=O)OC(C)(C)C (stereo not drawn)			GI50 [8]: > 100 µM (inactive); GI50 [4]: > 100 µM (inactive); GI50 [5]: > 100 µM (inactive)
C=C(C(=C)P(=S)(c1ccccc1)c1ccccc1)P(=S)(c1ccccc1)c1ccccc1			GI50 [1]: > 100 µM (inactive); GI50 [2]: 73.6 µM (inactive); GI50 [8]: > 100 µM (inactive); GI50 [4]: 35.2 µM (inactive); GI50 [5]: > 100 µM (inactive)
COP(=O)(Cc1ccccc1)Cc1ccccc1		> 100 µM (inactive)	
O=c1[nH]cc(COCC(F)(F)C(F)(F)C(F)(F)C(F)F)c(=O)[nH]1			GI50 [1]: > 100 µM (inactive); GI50 [3]: > 100 µM (inactive); GI50 [4]: > 100 µM (inactive); GI50 [5]: > 100 µM (inactive)
O=P1(Oc2ccc(Cl)cc2Cl)Oc2cc3ccccc3cc2O1			GI50 [1]: 62.2 µM (inactive); GI50 [2]: 33.1 µM (inactive); GI50 [3]: 56.8 µM (inactive); GI50 [8]: > 100 µM (inactive); GI50 [4]: 27.5 µM (inactive)
CC(Cc1ccc(Cl)cc1Cl)NO (stereo not drawn)	> 100 µM (inactive)	> 100 µM (inactive)	
O=c1oc2ccc(Cl)cc2cc1-c1cn2cc(Cl)ccc2n1	0.368 µM (active)	15.1 µM (inactive)	
Cc1cc(C)n(CCNCCn2nc(C)cc2C)n1			GI50 [3]: > 100 µM (inactive); GI50 [8]: > 100 µM (inactive); GI50 [4]: > 100 µM (inactive); GI50 [5]: > 100 µM (inactive)
CC(C)(C)OC(=O)NC(Cc1ccc([N+](=O)[O-])cc1)C(=O)NC(CCCCNC(=O)OCc1ccccc1)C(=O)ON1C(=O)CCC1=O (stereo not drawn)	> 100 µM (inactive)	> 100 µM (inactive)	
CC(C)C(O)(C(=O)OCN1C(=O)C2C3C=CC(C2C1=O)C1C2C(=O)N(COC(=O)C(O)(C(C)C)C(C)O)C(=O)C2C31)C(C)O (stereo not drawn)	> 100 µM (inactive)		
CC(=O)OC(C)c1cc2c(s1)C(=O)c1sccc1C2=O (stereo not drawn)	0.0735 µM (active)	0.7 µM (active)	
Cc1cc(S(=O)(=O)Nc2nc3ccccc3nc2-c2cccc([N+](=O)[O-])c2)c(S)cc1Cl	20.5 µM (inactive)	38.7 µM (inactive)	
COc1ccc(-c2c(C#N)c(N)n(C3OCC(O)C(O)C3O)c(=S)c2C#N)cc1 (stereo not drawn)	> 100 µM (inactive)	> 100 µM (inactive)	

Compound	GI50 [6]	GI50 [7]	other results
COC(=O)c1ccc(/N=N/N(C)CO)cc1			GI50 [2]: 9.44 µM (inactive); GI50 [3]: 98.6 µM (inactive); GI50 [8]: 32.5 µM (inactive); GI50 [4]: > 100 µM (inactive); GI50 [5]: > 100 µM (inactive)
COC(=O)Cn1c(=O)oc2nc(-c3ccccc3)cc(C(F)(F)F)c21	> 100 µM (inactive)	> 100 µM (inactive)	
CCOC(=O)COc1cc(-c2ccccc2F)nc2cc3c(cc12)OCO3	> 100 µM (inactive)	> 100 µM (inactive)	
COc1cc(Nc2cc(Cl)cc(Cl)c2)nc(N)n1	27.1 µM (inactive)	17.1 µM (inactive)	
COc1cc(CC(C)NC(C)=O)cc(OC)c1 (stereo not drawn)	> 100 µM (inactive)	> 100 µM (inactive)	
CCOC(=O)/C(C(=O)Nc1ccc(Cl)cc1)=C(/N)N1CCOCC1	> 100 µM (inactive)	> 100 µM (inactive)	
CCOC(=O)NNC(=O)NCc1cccc(CNC(=O)NNC(=O)OCC)c1	> 100 µM (inactive)	> 100 µM (inactive)	
COC(=O)[C@H]1C=NN[C@@H]1C(=O)N1[C@H]2CC3CC[C@@]2(CS1(=O)=O)C3(C)C		> 100 µM (inactive)	
C=CCOC(=O)C1=C(CCC[C@@H](C)O[Si](C)(C)C(C)(C)C)N=C(N)N2[C@H](CCO)CC[C@@H]12	17 µM (inactive)	21.8 µM (inactive)	
Brc1ccc(/N=N/N2CCCCC2)cc1	57.3 µM (inactive)	98.2 µM (inactive)	
Cc1nc(O)nc(N/N=C/c2ccc(Cl)cc2)c1C(=O)NC(C)(CO)CO	> 100 µM (inactive)	> 100 µM (inactive)	
O=C(CCCN1CCC2(CC1)OC(=O)N(c1ccccc1)C2=O)c1ccccc1	> 100 µM (inactive)		
CC1OC(O)CC(N(C)C)C1O.CC1OC(O)CCC1O.CCC1CC(O)c2c(O)c3c(c(O)c2C1O)C(=O)c1cccc(O)c1C3=O (stereo not drawn)	0.0284 µM (active)	0.0448 µM (active)	
CC(=O)Nc1ccc(C(=O)NN2C(=O)C(Cl)C2c2cc(Br)cc(Br)c2O)cc1 (stereo not drawn)			GI50 [1]: > 100 µM (inactive); GI50 [2]: > 100 µM (inactive); GI50 [3]: > 100 µM (inactive); GI50 [4]: > 100 µM (inactive); GI50 [5]: > 100 µM (inactive)
COc1cc(Nc2cnc3cc(F)c(F)cc3n2)cc(OC)c1OC	> 100 µM (inactive)	> 100 µM (inactive)	
C#CCCCCC#CC1CCCC1C1=CC(=O)c2ccccc21 (stereo not drawn)			GI50 [1]: 12.5 µM (inactive); GI50 [2]: 8.36 µM (inactive); GI50 [3]: 8.71 µM (inactive); GI50 [4]: 1.48 µM (inactive)
CC(=O)N(C(C)=O)n1c(Cc2ccc(C)cc2)nn(C(C)=O)c1=O	> 100 µM (inactive)	> 100 µM (inactive)	
CC1=CC(=O)c2ccc(C)cc2C1=O [CHIMAPHILIN]	0.394 µM (active)	11.6 µM (inactive)	
NCOC(=O)Cc1ccc(Br)cc1	> 100 µM (inactive)	> 100 µM (inactive)	
CC(=O)c1ccc(NC(=O)C(=O)C(C#N)CC(C)(C)C=O)cc1 (stereo not drawn)			GI50 [2]: > 100 µM (inactive); GI50 [8]: > 100 µM (inactive); GI50 [5]: > 100 µM (inactive)
CCCCc1c2c(nc3c1CCCC3=O)CCCC2			GI50 [2]: > 100 µM (inactive); GI50 [4]: > 100 µM (inactive); GI50 [5]: > 100 µM (inactive)
CC(C)(Br)C(=O)/C=C/c1ccccc1	3.5 µM (inactive)		
O=C(CCc1nnc(S)[nH]1)Nc1cccc(C(F)(F)F)c1			GI50 [1]: > 100 µM (inactive); GI50 [2]: > 100 µM (inactive); GI50 [3]: > 100 µM (inactive); GI50 [8]: > 100 µM (inactive); GI50 [4]: > 100 µM (inactive)

Compound	GI50 [6]	GI50 [7]	other results
Cc1ccccc1NC(=O)CSc1nnc(-c2ccc(/N=C\c3ccc(Cl)cc3)cc2)o1			GI50 [1]: > 100 µM (inactive); GI50 [2]: > 100 µM (inactive); GI50 [8]: > 100 µM (inactive); GI50 [4]: > 100 µM (inactive); GI50 [5]: > 100 µM (inactive)
O=C1CC2(CCNCC2)C(=O)N1N1CCCCC1	> 100 µM (inactive)	> 100 µM (inactive)	
C/C(=C1/N=C(c2ccccc2)OC1=O)c1ccccc1	> 100 µM (inactive)	> 100 µM (inactive)	
Cc1nc(=O)n2c(c1C(=O)Nc1ccc(Cl)cc1)NCCC2			GI50 [2]: > 100 µM (inactive); GI50 [8]: > 100 µM (inactive); GI50 [4]: > 100 µM (inactive); GI50 [5]: > 100 µM (inactive)
CC(C)=CC[S+]([O-])c1ccccc1NC1=CC(=O)CC(C)(C)C1 (stereo not drawn)	> 100 µM (inactive)	> 100 µM (inactive)	
CC1SC(=O)SC1C (stereo not drawn)	> 100 µM (inactive)		
COC(=O)C1=C(C(=O)OC)SC2(S1)C(C(=O)OC)=C(C(=O)OC)Sc1c2ss/c1=N\c1ccc(Cl)cc1	0.47 µM (active)	1.91 µM (inactive)	
Nc1nc(N)c2ncn(Cc3ccccc3CO)c2n1		> 100 µM (inactive)	
COc1ccc2c(O)c1-c1c(OC)ccc(c1O)SSc1ccc(OC)c(c1O)-c1c(OC)ccc(c1O)SS2	> 100 µM (inactive)		
CC1CN=C(N(C)C(=O)Nc2ccc(Cl)cc2)S1 (stereo not drawn)	8.69 µM (inactive)		
CC1=C(C(=O)Nc2ccccc2)C2(CCCCC2)C(C#N)=C(SCC(=O)Nc2ccc(Br)cc2)N1	3.41 µM (inactive)	8.15 µM (inactive)	
COC1OC2COC(c3ccccc3)OC2C(O)C1OC(=S)c1ccccc1 (stereo not drawn)	27.3 µM (inactive)	53.1 µM (inactive)	
NCCCN(CCCCN(CCCN)C(=O)OCc1ccccc1)C(=O)OCc1ccccc1		> 100 µM (inactive)	
COc1cc(OC)c(/C=N/N=C(\N)NO)c(OC)c1	> 100 µM (inactive)		
CC(=O)OCC1(CNc2nc(N)ncc2C#N)CC(CCc2ccccc2)C1 (stereo not drawn)	28.6 µM (inactive)	87.1 µM (inactive)	
Oc1ccc(/C=N/N=c2\[nH][nH]/c(=N\N=C\c3ccc(O)cc3O)c3ccccc23)c(O)c1	0.228 µM (active)	0.21 µM (active)	
O=C(OC1C#CCSCC#C/C=C\1)c1ccc2c(c1)C(=O)c1ccccc1C2=O (stereo not drawn)	> 100 µM (inactive)	22.6 µM (inactive)	
CCN(CC)CCCNc1n[n+]([O-])c2ccccc2[n+]1[O-]	11.9 µM (inactive)	17.3 µM (inactive)	
CCOC(=O)c1ccc(/N=C2\SC(=S)N(c3ccc(F)cc3)\C2=N/c2ccc(C(=O)OCC)cc2)cc1	12.9 µM (inactive)	12.6 µM (inactive)	
COc1cc2c(c3nc4ccccc4nc13)-c1ccc(SC)c(=O)cc1[C@@H](NC(C)=O)CC2	0.0188 µM (active)		
COc1ccc2c(c1)c1c(n2CCN2CCOCC2)-c2ccccc2CC1	32.2 µM (inactive)	> 100 µM (inactive)	
